Assay results as given in patent US20020103082A1, “Adjuvant activity through modulation of animal and plant cell membrane transport” (Board of Regents, The University of Texas System, priority 2000, published 2002).
Like-named read-outs stand apart in the source and are kept apart here.

Assays:
[1] = system: acid phosphatase yeast mutant YMR4; assay: Salvage pathway experiments in yeast (turbidity); assay type: cell-based, Saccharomyces cerevisiae; conditions: added to media with cycloheximide; 72 hours
Description: All cell lines were grown in liquid media either containing drug (for the drug selected lines) or not containing drug (for the non-drug selected lines). When the cultures reached a turbidity of 1.00 as measured at a wavelength of 600 in a spectrophotometer (OD600=1.00), 10 μl of each culture was then removed and placed in either media with nothing added, 3 mM potassium phosphate; 3 mM adenosine; 9 mM potassium phosphate and 3 mM adenosine (for controls); potassium phosphate and cycloheximide; adenosine and cycloheximide; adenosine, cycloheximide, and potassium phosphate. Cell cultures were further grown for 72 hours, and their turbidity was determined by OD600 readings on a spectrophotometer. Growth of cell lines for nigericin experiments: Drug selected lines were removed from cycloheximide containing plates and placed in 5 ml liquid media containing 5 ng/ml cycloheximide. Cell cultures were allowed to grow until they reached an OD600 reading of 1.00, and then 10 μl from each culture was removed and transferred to culture tubes containing 5 ml of liquid media and 25 μg/ml nigericin. OD600 readings were recorded daily for a period of up to 72 hours to determine growth.

[2] = system: Arabidopsis thaliana WS wild-type plants; assay: Increasing plant sensitivity to herbicides (adjuvant test); assay type: in vivo; conditions: surflan with compound of Formula II at 5 μg/ml versus surflan alone
Description: Arabidopsis thaliana WS wild-type plants were plated on germination media containing two commonly used herbicides, surflan and pendimethalin, in the presence and absence of an ecto-phosphatase inhibitor of Formula II and monitored for their growth in a 22° C. incubator under constant fluorescent illumination.
More specifically, germination media was prepared containing 20 μl/ml, 10 μl/ml, 2 μl/ml, 1 μl/ml, and 0.2 μl/ml of a surflan solution made at the manufacturer's recommended concentration. Compound of Formula II was added to a portion of the germination media at a final concentration of 5 μg/ml.
Arabidopsis thaliana WS wild-type seeds were surface sterilized in a 20% bleach solution for 20 minutes, washed three times in double distilled waster, and resuspended in 0.1% agarose solution. The seeds were then pipetted onto plates containing approximately 3 ml of germination media containing the various concentrations of surflan with and without compound of Formula II. All plates were placed in a 22° C. incubator under constant fluorescent illumination. Growth was assessed daily.

[3] = system: wild-type Arabidopsis thaliana plants; assay: Arabidopsis germination selection assay; assay type: in vivo; conditions: cycloheximide 500 ng/ml alone or phosphatase inhibitor 1 mM alone, after 10-20 days
Description: (§1) Arabidopsis seeds were sown in a solid germination media containing MS salts (Sigma Chemical, St. Louis, Mo.), 2% sucrose, 0.8% agar, and vitamins (Valvekens, D. et al., […], Proc. Natl. Acad. Sci. USA 85:5536-5540). For selection assays, one of the following, or a combination of both, was added to media (cooled to less than 50° C. before adding) immediately prior to pouring into plates: cycloheximide at a final concentration of 500 ng/ml; α,β-methyleneadenosine 5′-diphosphate at a final concentration of 1 mM. Plant growth was measured by germination percentage after 10-20 days. All other materials and methods were iscussed above in Example 2.

[4] = system: AtPGP-1 overexpressing (MDR OE) Arabidopsis thaliana plants; assay type: in vivo; conditions: AtPGP-1 overexpressing plants; cycloheximide 500 ng/ml alone or phosphatase inhibitor 1 mM alone; after 10-20 days
Description: as §1

[5] = system: YMR4 yeast mutant deficient in two major extracellular phosphatases; assay: Yeast drug selection growth assay; assay type: cell-based, Saccharomyces cerevisiae
Description: (§2) Yeast were grown at 30 C under conditions of constant selection for uracil auxotrophy. YNB (BiolOl, Vista, Calif.) supplemented with CSM (uracil dropout) and 2% glucose was used to grow strains having pVT101 constructs. Cycloheximide (Sigma Chemical, St. Louis, Mo.) was added to liquid media or spread on solid media to achieve a final concentration of 500 ng/ml. Nigericin (Sigma Chemical, St. Louis, Mo.) was added to liquid media or spread on solid media to achieve a final concentration of 25 μg/ml. Yeast strains used in cycloheximide selection assays were always propagated in the presence of the cycloheximide on plates and then streaked onto new plates containing drug or no drug, such that induced resistance existed in each strain at the time of the start of the assay. For selection assays on plates, single colonies were streaked; for selection in liquid media 0.01 ml of saturated culture was added to fresh media containing the drug. The plates shown in figures were grown for 3-5 days before photographs were taken. Yeast selection assays in liquid media were quantitated by turbidity as measured by absorbance at OD600.

[6] = system: wild-type yeast strain INVSC1; assay: Yeast drug selection growth assay; assay type: cell-based, Saccharomyces cerevisiae; conditions: cycloheximide 500 ng/ml
Description: as §2

[7] = system: yeast cells (YMR4 and INVSC, with or without AtPGP-1); assay type: cell-based, Saccharomyces cerevisiae; conditions: 100 mM ATP, 48 hours
Description: To create drug resistant yeast strains, all four cell lines were grown up in the presence of 500 ng/ml of cycloheximide, and transferred to other cycloheximide containing plates after a period of four to six days. This transfer of cell lines and subculturing continued such that the yeast cells grew in the presence of cycloheximide for a period of at least a month.
Cells cultured in media alone: To create cell lines that had not been preselected for their ability to grow in drug, yeast strains were grown on plates containing YNB (Bio101, Vista, Calif.) without uracil (-URA) to maintain the presence of the vector (which supplies URA) without any drugs added.
Cells were transferred into 5 ml YNB -URA liquid media for turbidity measurements. All cell lines (both non-drug selected and drug-selected) were grown in media with the addition of either nothing, 500 ng/ml cycloheximide, 100 mM ATP, or 500 ng/ml cycloheximide and 100 mM ATP. Turbidity readings were taken after 48 hours.

[8] = system: wild-type yeast strain INVSC with plasmid pvt101-U; assay: Increasing yeast sensitivity to fungicide (filter disk zone of inhibition); assay type: cell-based, Saccharomyces cerevisiae; conditions: 48 hours
Description: Additional experiment were performed to test the ability of ecto-phosphatase inhibitors to increase the effectiveness of the commonly used fungicide chlorothalonil. Yeast was plated on media with or without an ecto-phosphatase inhibitor of Formula X where a paper filter disk soaked in the fungicide was added to the plate. After 48 hours, the zone of inhibition of yeast growth around the filter disk was calculated.
The wild-type yeast strain INVSC with plasmid pvt101-U (for selection on media lacking uracil) was used in all experiments and each experiment was performed in triplicate. Media used was made by combining YNB (Bio 101, Vista, Calif.), the drop out supplement CSM-URA (Bio 101, Vista, Calif.), and glucose in water. […]
Twenty μl of an overnight saturated culture of yeast was plated onto each plate, spread, and allowed to dry for 20 minutes. […] The zone of inhibition of yeast growth around the disk was assessed after 48 hours.
Plates with chlorothalonil disks indeed contained a zone of inhibition surrounding the disk. […] The zone of inhibition was calculated by measuring the radius from the center of the disk to the point of noticeable yeast growth (at least 10 measurements per plate), averaging the radii measurements, and using the average radius of the plates to calculate the circular area of the zone of inhibition.

## O=P(O)(O)O [phosphate, potassium phosphate]
[1]
  effect on growth of cells overexpressing AtPGP-1 in drug: slightly inhibitory
  effect on resistance to cycloheximide: did not enhance resistance

## Cc1cccc(NS(=O)(=O)c2ccc(-c3ccccc3)cc2)c1 [Formula II]
[2]
  surflan concentration at which it is an equally effective weed killer: five fold less concentration

## Nc1ncnc2c1ncn2[C@@H]1O[C@H](COP(=O)(O)CP(=O)(O)O)[C@@H](O)[C@H]1O [α,β-methyleneadenosine 5′-diphosphate]
[3]
  germination rate: 90%
[4]
  germination rate: 83%

## C[C@@H]1C[C@@H]([C@H](O)CC2CC(=O)NC(=O)C2)C(=O)[C@@H](C)C1 [cycloheximide]
[3]
  germination rate: 2%
[4]
  germination rate: 50%
[5]; cycloheximide 500 ng/ml
  growth in drug: did not grow
[6]
  growth in drug: did grow

## Nc1ncnc2c1ncn2[C@@H]1O[C@H](CO)[C@@H](O)[C@H]1O [adenosine]
[1]
  effect on growth of cells overexpressing AtPGP-1 in drug: slightly inhibitory
  effect on resistance to cycloheximide: did not enhance resistance

## Nc1ncnc2c1ncn2[C@@H]1O[C@H](COP(=O)(O)OP(=O)(O)OP(=O)(O)O)[C@@H](O)[C@H]1O [ATP]
[7]; cells not previously selected in drug
  growth in high levels of ATP: able to grow
[7]; cells previously grown in cycloheximide, not overexpressing AtPGP-1
  growth in high levels of ATP: not able to grow

## CO[C@@H]1C[C@@H](C[C@H]2CC[C@H](C)[C@H]([C@@H](C)C(=O)O)O2)O[C@]2(O[C@](C)([C@H]3CC[C@@](C)([C@@H]4O[C@@H]([C@H]5O[C@@](O)(CO)[C@H](C)C[C@@H]5C)C[C@@H]4C)O3)C[C@H]2C)[C@@H]1C [nigericin]
[5]; nigericin 25 μg/ml, YMR4 containing vector alone
  growth in drug: reduced growth

## N#Cc1c(Cl)c(Cl)c(Cl)c(C#N)c1Cl [chlorothalonil]
[8]; chlorothalonil by itself
  area of inhibition: 0.35 in^2
[8]; chlorothalonil disk, plates without ecto-phosphatase inhibitor
  average radius of inhibition: 0.33 in.
